In patent US9834518B2, “Compounds for inhibiting cell proliferation in EGFR-driven cancers” (ARIAD Pharmaceuticals, Inc., priority 2011, dated 2017):

How the values were obtained:
[1] = target: human EGFR (native sequence) (Homo sapiens, UniProt P00533); test: Kinase inhibition, human EGFR (native sequence); format: biochemical; settings: 10 μM ATP; 10 pt curves, 3 μM top concentration (singlicates)
Protocol: (§1) Kinase inhibitory activity of the compounds was measured against human EGFR (native sequence) and against EGFR bearing the L858R mution and the L858R/T790M double mutation (EGFR, L858R, and L858R/T790M, respectively in Table 1). Additional assays can be conducted with EGFR deletion mutants such as delE746-A750 with or without the additional T790M mutation. Assay conditions included 10 pt curves with 3 μM top concentration (singlicates) and 10 μM ATP.

[2] = target: EGFR bearing the L858R mution (Homo sapiens, UniProt P00533, L858R); test: Kinase inhibition, EGFR L858R; format: biochemical; settings: 10 μM ATP; 10 pt curves, 3 μM top concentration (singlicates)
EGFR bearing the L858R mution, sequence (P00533 25-1210 L858R): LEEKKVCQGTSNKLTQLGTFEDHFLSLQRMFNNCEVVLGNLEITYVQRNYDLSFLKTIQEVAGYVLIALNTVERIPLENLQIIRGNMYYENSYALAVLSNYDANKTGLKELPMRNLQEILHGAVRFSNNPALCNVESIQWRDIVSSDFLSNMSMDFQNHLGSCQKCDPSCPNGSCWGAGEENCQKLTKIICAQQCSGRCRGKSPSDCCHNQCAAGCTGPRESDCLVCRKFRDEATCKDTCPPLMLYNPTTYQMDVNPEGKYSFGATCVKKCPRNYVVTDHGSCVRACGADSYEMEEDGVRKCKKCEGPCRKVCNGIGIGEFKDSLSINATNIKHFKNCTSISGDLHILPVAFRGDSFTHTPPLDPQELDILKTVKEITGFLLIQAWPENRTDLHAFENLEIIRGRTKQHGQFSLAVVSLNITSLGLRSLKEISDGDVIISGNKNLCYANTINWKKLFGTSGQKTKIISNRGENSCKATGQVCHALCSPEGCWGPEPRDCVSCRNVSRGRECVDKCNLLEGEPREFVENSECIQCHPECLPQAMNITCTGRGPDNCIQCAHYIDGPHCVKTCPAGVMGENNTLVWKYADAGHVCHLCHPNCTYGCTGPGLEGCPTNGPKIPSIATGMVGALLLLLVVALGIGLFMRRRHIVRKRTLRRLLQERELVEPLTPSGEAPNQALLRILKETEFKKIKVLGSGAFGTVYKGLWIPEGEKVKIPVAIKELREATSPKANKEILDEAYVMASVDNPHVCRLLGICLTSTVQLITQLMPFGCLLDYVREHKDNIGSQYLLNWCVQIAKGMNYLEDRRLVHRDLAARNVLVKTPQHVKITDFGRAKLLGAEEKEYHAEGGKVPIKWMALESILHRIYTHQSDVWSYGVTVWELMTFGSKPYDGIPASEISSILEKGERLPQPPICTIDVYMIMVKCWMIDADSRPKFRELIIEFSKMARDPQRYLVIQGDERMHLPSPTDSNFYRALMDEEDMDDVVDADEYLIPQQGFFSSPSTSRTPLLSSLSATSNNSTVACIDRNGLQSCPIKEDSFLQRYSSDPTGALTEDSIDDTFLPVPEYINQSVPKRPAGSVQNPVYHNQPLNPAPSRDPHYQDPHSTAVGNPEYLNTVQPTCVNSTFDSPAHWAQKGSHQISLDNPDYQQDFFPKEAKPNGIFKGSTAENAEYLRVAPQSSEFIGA
Protocol: as §1

[3] = target: EGFR bearing the L858R/T790M double mutation (Homo sapiens, UniProt P00533, L858R/T790M); test: Kinase inhibition, EGFR L858R/T790M; format: biochemical; settings: 10 μM ATP; 10 pt curves, 3 μM top concentration (singlicates)
EGFR bearing the L858R/T790M double mutation, sequence (P00533 25-1210 T790M/L858R): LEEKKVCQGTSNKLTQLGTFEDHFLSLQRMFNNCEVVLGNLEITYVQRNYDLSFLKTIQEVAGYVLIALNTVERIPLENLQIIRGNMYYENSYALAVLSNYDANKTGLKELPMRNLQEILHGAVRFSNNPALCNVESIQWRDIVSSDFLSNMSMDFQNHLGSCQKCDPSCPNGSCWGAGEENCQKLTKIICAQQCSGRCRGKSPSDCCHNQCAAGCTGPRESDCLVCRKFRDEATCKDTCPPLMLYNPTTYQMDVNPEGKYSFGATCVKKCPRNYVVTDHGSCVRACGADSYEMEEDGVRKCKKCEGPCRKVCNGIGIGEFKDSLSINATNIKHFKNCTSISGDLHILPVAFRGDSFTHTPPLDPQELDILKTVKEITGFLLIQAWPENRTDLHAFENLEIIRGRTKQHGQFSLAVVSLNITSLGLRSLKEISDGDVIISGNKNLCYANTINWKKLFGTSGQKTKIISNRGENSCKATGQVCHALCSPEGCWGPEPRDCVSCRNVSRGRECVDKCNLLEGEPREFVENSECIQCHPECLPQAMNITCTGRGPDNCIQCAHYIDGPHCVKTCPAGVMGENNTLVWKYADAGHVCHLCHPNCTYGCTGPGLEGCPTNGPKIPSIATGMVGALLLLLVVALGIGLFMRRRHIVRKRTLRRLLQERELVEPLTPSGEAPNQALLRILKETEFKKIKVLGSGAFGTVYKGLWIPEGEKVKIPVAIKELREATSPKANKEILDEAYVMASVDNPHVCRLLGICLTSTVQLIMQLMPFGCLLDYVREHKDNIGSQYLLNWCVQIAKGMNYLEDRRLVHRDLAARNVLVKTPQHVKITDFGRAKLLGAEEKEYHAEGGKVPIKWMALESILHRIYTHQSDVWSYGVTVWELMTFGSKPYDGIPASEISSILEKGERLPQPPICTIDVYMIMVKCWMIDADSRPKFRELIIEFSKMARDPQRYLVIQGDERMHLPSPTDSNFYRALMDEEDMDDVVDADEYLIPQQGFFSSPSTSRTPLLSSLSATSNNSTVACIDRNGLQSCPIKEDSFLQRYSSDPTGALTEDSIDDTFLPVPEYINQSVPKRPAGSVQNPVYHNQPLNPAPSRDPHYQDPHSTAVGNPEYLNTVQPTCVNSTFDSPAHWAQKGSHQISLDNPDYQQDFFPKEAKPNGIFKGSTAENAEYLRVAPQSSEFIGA
Protocol: as §1

BAF3 PARENTAL = test: Cell proliferation (MTT), BAF3 parental; format: cell-based; settings: Mus musculus
Protocol: (§2) We also assessed the antiproliferative activity of compounds of Formula (I) against BaF3 cells expressing the target EGFR mutations or control (i.e., cell lines expressing wildtype EGFR). Assays were conducted using MTT.

[4] = target: BAF3 EGFR DEL T790M PURO POOL (Homo sapiens, UniProt P00533, DEL746-750/T790M, cells depend on it); test: Cell proliferation (MTT), BAF3 EGFR DEL T790M; format: cell-based
BAF3 EGFR DEL T790M PURO POOL, sequence (P00533 with tags, fused parts or gaps DEL746-750/T790M): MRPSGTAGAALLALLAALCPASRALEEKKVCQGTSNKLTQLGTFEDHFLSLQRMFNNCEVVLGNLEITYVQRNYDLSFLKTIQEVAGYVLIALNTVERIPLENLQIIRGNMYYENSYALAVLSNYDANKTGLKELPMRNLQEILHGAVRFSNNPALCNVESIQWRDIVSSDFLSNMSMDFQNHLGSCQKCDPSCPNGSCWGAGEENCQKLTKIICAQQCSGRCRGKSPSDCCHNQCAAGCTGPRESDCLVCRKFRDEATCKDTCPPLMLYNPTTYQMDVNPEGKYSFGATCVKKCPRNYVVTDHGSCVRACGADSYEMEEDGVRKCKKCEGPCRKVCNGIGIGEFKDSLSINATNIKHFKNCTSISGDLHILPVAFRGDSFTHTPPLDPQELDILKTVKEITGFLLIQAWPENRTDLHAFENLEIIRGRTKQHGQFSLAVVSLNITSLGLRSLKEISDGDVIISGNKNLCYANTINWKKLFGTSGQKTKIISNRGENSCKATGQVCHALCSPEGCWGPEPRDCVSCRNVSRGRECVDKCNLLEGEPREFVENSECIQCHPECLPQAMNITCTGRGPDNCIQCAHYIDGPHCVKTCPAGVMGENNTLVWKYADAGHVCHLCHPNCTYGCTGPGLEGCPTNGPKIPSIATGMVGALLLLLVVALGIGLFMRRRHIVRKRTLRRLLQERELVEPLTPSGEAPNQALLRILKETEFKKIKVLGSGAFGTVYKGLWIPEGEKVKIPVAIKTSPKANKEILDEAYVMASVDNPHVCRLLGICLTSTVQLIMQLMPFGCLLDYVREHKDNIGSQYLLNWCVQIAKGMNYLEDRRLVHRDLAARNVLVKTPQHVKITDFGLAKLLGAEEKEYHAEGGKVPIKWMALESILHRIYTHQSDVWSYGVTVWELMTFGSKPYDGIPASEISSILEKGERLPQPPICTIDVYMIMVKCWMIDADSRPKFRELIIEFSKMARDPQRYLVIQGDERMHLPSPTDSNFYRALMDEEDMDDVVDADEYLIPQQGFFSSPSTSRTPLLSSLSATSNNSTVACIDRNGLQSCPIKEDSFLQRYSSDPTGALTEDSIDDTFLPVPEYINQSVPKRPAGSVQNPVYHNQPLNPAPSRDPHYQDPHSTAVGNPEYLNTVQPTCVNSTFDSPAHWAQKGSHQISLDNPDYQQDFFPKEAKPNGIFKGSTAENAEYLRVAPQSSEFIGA
Protocol: as §2

[5] = test system: BAF3 EGFR L858R-T790M PURO POOL; test: Cell proliferation (MTT), BAF3 EGFR L858R-T790M; format: cell-based; settings: Ba/F3 EGFR
Protocol: as §2

human EGFR (native sequence), sequence (P00533 25-1210): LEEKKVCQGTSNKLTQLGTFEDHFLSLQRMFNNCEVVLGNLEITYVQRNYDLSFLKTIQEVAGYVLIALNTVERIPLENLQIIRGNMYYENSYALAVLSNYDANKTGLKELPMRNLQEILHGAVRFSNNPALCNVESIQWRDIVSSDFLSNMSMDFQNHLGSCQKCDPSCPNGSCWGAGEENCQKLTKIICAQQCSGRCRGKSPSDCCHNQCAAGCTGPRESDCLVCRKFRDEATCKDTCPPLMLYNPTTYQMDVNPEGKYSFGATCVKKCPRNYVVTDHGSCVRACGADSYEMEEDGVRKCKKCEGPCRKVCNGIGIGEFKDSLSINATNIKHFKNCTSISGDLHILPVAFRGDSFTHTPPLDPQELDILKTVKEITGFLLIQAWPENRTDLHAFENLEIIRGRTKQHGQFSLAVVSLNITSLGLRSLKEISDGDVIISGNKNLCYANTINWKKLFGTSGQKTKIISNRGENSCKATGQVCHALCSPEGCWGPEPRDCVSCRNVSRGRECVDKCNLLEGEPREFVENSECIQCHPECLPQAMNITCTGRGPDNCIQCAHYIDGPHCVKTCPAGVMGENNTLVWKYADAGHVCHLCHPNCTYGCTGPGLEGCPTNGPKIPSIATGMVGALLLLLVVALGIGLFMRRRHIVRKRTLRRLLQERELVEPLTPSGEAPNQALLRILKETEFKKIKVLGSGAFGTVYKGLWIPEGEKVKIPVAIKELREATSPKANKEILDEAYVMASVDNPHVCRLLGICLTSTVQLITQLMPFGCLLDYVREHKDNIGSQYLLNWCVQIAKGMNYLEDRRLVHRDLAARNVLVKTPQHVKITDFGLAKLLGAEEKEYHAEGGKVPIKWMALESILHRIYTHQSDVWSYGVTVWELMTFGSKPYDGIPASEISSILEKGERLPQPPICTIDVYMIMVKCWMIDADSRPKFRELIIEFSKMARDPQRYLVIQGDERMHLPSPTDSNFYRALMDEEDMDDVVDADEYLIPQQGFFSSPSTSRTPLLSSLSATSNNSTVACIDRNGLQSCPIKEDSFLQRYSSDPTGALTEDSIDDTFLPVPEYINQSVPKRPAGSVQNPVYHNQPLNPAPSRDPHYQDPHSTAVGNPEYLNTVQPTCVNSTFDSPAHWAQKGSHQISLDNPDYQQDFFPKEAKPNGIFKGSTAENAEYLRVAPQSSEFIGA

Compound	IC50 [1]	IC50 [2]	IC50 [3]	IC50 [4]	IC50 [5]	IC50 (BAF3 PARENTAL)
C=CC(=O)Nc1cc(Nc2ncc(Cl)c(Nc3ccccc3P(C)(C)=O)n2)c(OC)cc1OCC(COC)N(C)C (stereo not drawn) [Example 37, N-(5-((5-chloro-4-((2-(dimethylphosphoryl)phenyl)amino)pyrimidin-2-yl)amino)-2-(2-(dimethylamino)-3-methoxypropoxy)-4-methoxyphenyl)acrylamide]	< 51 nM	< 51 nM	< 51 nM	< 51 nM	< 51 nM	≥ 250 nM
C=CC(=O)Nc1cc(Nc2ncc(Cl)c(Nc3ccccc3P(C)(C)=O)n2)c(OC)cc1N(C)CCN(C)CCOC [Example 38, N-(5-((5-chloro-4-((2-(dimethylphosphoryl)phenyl)amino)pyrimidin-2-yl)amino)-4-methoxy-2-((2-((2-methoxyethyl)(methyl)amino)ethyl)(methyl)amino)phenyl)acrylamide]	< 51 nM	< 51 nM	< 51 nM	< 51 nM	< 51 nM	≥ 250 nM
C=CC(=O)Nc1cc(Nc2ncc(Cl)c(Nc3ccccc3P(C)(C)=O)n2)c(OC)cc1OCCN(C)CCOC [Example 39, N-(5-((5-chloro-4-((2-(dimethylphosphoryl)phenyl)amino)pyrimidin-2-yl)amino)-4-methoxy-2-(2-((2-methoxyethyl)(methyl)amino)ethoxy)phenyl)acrylamide]	< 51 nM	< 51 nM	< 51 nM	< 51 nM	< 51 nM	≥ 250 nM
C=CC(=O)Nc1cc(Nc2ncc(Cl)c(Nc3cccc(C)c3P(=O)(CC)CC)n2)c(OC)cc1F [Example 49, N-(5-((5-chloro-4-((2-(diethylphosphoryl)-3-methylphenyl)amino)pyrimidin-2-yl)amino)-2-fluoro-4-methoxyphenyl)acrylamide]	< 51 nM	< 51 nM	< 51 nM	< 51 nM	< 51 nM	≥ 250 nM
C=CC(=O)Nc1ccc(OC)c(Nc2ncc(Cl)c(Nc3cccc(C)c3P(=O)(CC)CC)n2)c1 [Example 50, N-(3-((5-chloro-4-((2-(diethylphosphoryl)-3-methylphenyl)amino)pyrimidin-2-yl)amino)-4-methoxyphenyl)acrylamide]	< 51 nM	< 51 nM	< 51 nM	< 51 nM	< 51 nM	≥ 250 nM
COc1cc(P(C)(C)=O)ccc1Nc1ncc(Cl)c(Oc2cccc(NC(=O)/C=C/CN(C)C)c2)n1 [Example 51, (E)-N-(3-((5-chloro-2-((4-(dimethylphosphoryl)-2-methoxyphenyl)amino)pyrimidin-4-yl)oxy)phenyl)-4-(dimethylamino)but-2-enamide]	51 to 100 nM	< 51 nM	< 51 nM	≥ 250 nM	≥ 250 nM	≥ 250 nM
C=CC(=O)Nc1cc(Nc2ncc(Cl)c(Nc3ccccc3P(=O)(CC)CC)n2)c(OC)cc1OCCN(C)C [Example 52, N-(5-((5-chloro-4-((2-(diethylphosphoryl)phenyl)amino)pyrimidin-2-yl)amino)-2-(2-(dimethylamino)ethoxy)-4-methoxyphenyl)acrylamide]	< 51 nM	< 51 nM	< 51 nM	< 51 nM	< 51 nM	≥ 250 nM
C=CC(=O)Nc1cc(Nc2ncc(Cl)c(Nc3ccc(F)cc3P(C)(C)=O)n2)c(OC)cc1F [Example 55, N-(5-((5-chloro-4-((2-(dimethylphosphoryl)-4-fluorophenyl)amino)pyrimidin-2-yl)amino)-2-fluoro-4-methoxyphenyl)acrylamide]	51 to 100 nM	< 51 nM	< 51 nM	< 51 nM	< 51 nM	≥ 250 nM
COCCOc1cc(OC)c(Nc2ncc(Cl)c(Nc3ccccc3P(C)(C)=O)n2)cc1NC(=O)/C=C/CN(C)C [Example 57, (E)-N-(5-((5-chloro-4-((2-(dimethylphosphoryl)phenyl)amino)pyrimidin-2-yl)amino)-4-methoxy-2-(2-methoxyethoxy)phenyl)-4-(dimethylamino)but-2-enamide]	≥ 250 nM	< 51 nM	< 51 nM	≥ 250 nM	≥ 250 nM	≥ 250 nM

The next lines start with results.

IC50 [1]	IC50 [2]	IC50 [3]	IC50 [4]	IC50 [5]	Compound	IC50 (BAF3 PARENTAL)
≥ 250 nM	101 to 250 nM	51 to 100 nM	< 51 nM	101 to 250 nM	C=CC(=O)Nc1cc(Nc2ncc(Cl)c(Nc3ccccc3P(C)(C)=O)n2)c(OC)cc1N(C)CCCN(C)C [Example 34, N-(5-((5-chloro-4-((2-(dimethylphosphoryl)phenyl)amino)pyrimidin-2-yl)amino)-2-((3-(dimethylamino)propyl)(methyl)amino)-4-methoxyphenyl)acrylamide]	≥ 250 nM
< 51 nM	< 51 nM	< 51 nM	< 51 nM	< 51 nM	C=C(CN(C(C)C)C(C)C)C(=O)Nc1ccc(OC)c(Nc2ncc(Cl)c(Nc3ccccc3P(C)(C)=O)n2)c1 [Example 35, N-(3-((5-chloro-4-((2-(dimethylphosphoryl)phenyl)amino)pyrimidin-2-yl)amino)-4-methoxyphenyl)-2-((diisopropylamino)methyl)acrylamide]	≥ 250 nM
< 51 nM	< 51 nM	< 51 nM	< 51 nM	≥ 250 nM	C=CC(=O)Nc1cc(Nc2ncc(Cl)c(Nc3ccccc3P(C)(C)=O)n2)c(OC)cc1CCCN(CC)CC [Example 40, N-(5-((5-chloro-4-((2-(dimethylphosphoryl)phenyl)amino)pyrimidin-2-yl)amino)-2-(3-(diethylamino)propyl)-4-methoxyphenyl)acrylamide]	≥ 250 nM
< 51 nM	< 51 nM	< 51 nM	< 51 nM	51 to 100 nM	C=CC(=O)Nc1cc(Nc2ncc(Cl)c(Nc3ccccc3P(C)(C)=O)n2)c(OC)cc1CCN(CC)CC [Example 41, N-(5-((5-chloro-4-((2-(dimethylphosphoryl)phenyl)amino)pyrimidin-2-yl)amino)-2-(2-(diethylamino)ethyl)-4-methoxyphenyl)acrylamide]	≥ 250 nM
101 to 250 nM	< 51 nM	< 51 nM	< 51 nM	< 51 nM	C=CC(=O)N(C)c1ccc(OC)c(Nc2ncc(Cl)c(Nc3ccccc3P(C)(C)=O)n2)c1 [Example 44, N-(3-((5-chloro-4-((2-(dimethylphosphoryl)phenyl)amino)pyrimidin-2-yl)amino)-4-methoxyphenyl)-N-methylacrylamide]	≥ 250 nM
≥ 250 nM	101 to 250 nM	≥ 250 nM	≥ 250 nM	≥ 250 nM	COc1ccc(N2C(=O)C=CC2=O)cc1Nc1ncc(Cl)c(Nc2ccccc2P(C)(C)=O)n1 [Example 46, 1-(3-((5-chloro-4-((2-(dimethylphosphoryl)phenyl)amino)pyrimidin-2-yl)amino)-4-methoxyphenyl)-1H-pyrrole-2,5-dione]	≥ 250 nM
< 51 nM	< 51 nM	< 51 nM	< 51 nM	< 51 nM	C=CC(=O)Nc1ccc(OCC)c(Nc2ncc(Cl)c(Nc3ccccc3P(C)(C)=O)n2)c1 [Example 47, N-(3-((5-chloro-4-((2-(dimethylphosphoryl)phenyl)amino)pyrimidin-2-yl)amino)-4-ethoxyphenyl)acrylamide]	≥ 250 nM
< 51 nM	< 51 nM	< 51 nM	< 51 nM	< 51 nM	C=CC(=O)Nc1cc(Nc2ncc(Cl)c(Nc3ccccc3P(=O)(CC)CC)n2)c(OC)cc1F [Example 48, N-(5-((5-chloro-4-((2-(diethylphosphoryl)phenyl)amino)pyrimidin-2-yl)amino)-2-fluoro-4-methoxyphenyl)acrylamide]	≥ 250 nM
51 to 100 nM	< 51 nM	< 51 nM	< 51 nM	< 51 nM	C=CC(=O)Nc1ccc(OC)c(Nc2ncc(Cl)c(Nc3cccc(F)c3P(C)(C)=O)n2)c1 [Example 53, N-(3-((5-chloro-4-((2-(dimethylphosphoryl)-3-fluorophenyl)amino)pyrimidin-2-yl)amino)-4-methoxyphenyl)acrylamide]	≥ 250 nM
101 to 250 nM	< 51 nM	< 51 nM	< 51 nM	< 51 nM	C=CC(=O)Nc1ccc(OC)c(Nc2ncc(Cl)c(Nc3ccc(F)cc3P(C)(C)=O)n2)c1 [Example 54, N-(3-((5-chloro-4-((2-(dimethylphosphoryl)-4-fluorophenyl)amino)pyrimidin-2-yl)amino)-4-methoxyphenyl)acrylamide]	≥ 250 nM
101 to 250 nM	< 51 nM	< 51 nM	< 51 nM	< 51 nM	COc1cc(F)c(NC(=O)/C=C/CN(C)C)cc1Nc1ncc(Cl)c(Nc2ccccc2P(C)(C)=O)n1 [Example 56, (E)-N-(5-((5-chloro-4-((2-(dimethylphosphoryl)phenyl)amino)pyrimidin-2-yl)amino)-2-fluoro-4-methoxyphenyl)-4-(dimethylamino)but-2-enamide]	≥ 250 nM
